From US20140128352A1, “COMPOUNDS AND METHODS FOR MODULATING MITOCHONDRIAL METABOLISM AND REACTIVE OXYGEN SPECIES PRODUCTION” (Buck Institute for Research on Aging, priority 2012, published 2014)
Read-outs that look alike come from different tables or passages of the source.

What was measured:
[1] = test system: ubiquinone binding site of complex I (IQ); experiment: High-throughput screen: ROS production from ubiquinone binding site of complex I (IQ), isolated skeletal muscle mitochondria; type: biochemical, rat; settings: for IQ: percent change in ROS from DMSO controls; for % Reduction in ROS production (IQ): Table 2, 5 mM succinate, compounds 2.5 μM, percent change from DMSO, positive control −100%
[2] = molecular target: T1, outer ubiquinone binding site of complex III (IIIQO) (Rattus norvegicus, UniProt P00159+P20788); experiment: High-throughput screen: ROS production from outer ubiquinone binding site of complex III (IIIQO); type: biochemical
T1 construct: freshly isolated muscle mitochondria were assayed; from tissue; host or cells: rat skeletal muscle mitochondria (Wistar, Harlan Laboratories)

[3] = molecular target: T2, succinate dehydrogenase/complex II (SDH) (Rattus norvegicus, UniProt P21913+Q641Z9+Q6PCT8+Q920L2); experiment: High-throughput screen: ROS production from succinate dehydrogenase/complex II (SDH); type: biochemical; settings: for inhibition at 2.5 µM / SDH: percent change in ROS from DMSO controls; for % Reduction in ROS Production (SDH): Table 5, 15 μM palmitoyl carnitine, 2.5 μM antimycin A, 2 μM myxothiazol, compounds 2.5 μM, percent change from DMSO
T2 construct: freshly isolated muscle mitochondria were assayed; from tissue; host or cells: rat skeletal muscle mitochondria (Wistar, Harlan Laboratories)

[4] = molecular target: T3, glycerol-3-phosphate dehydrogenase (GPDH) (Rattus norvegicus, UniProt P35571); experiment: High-throughput screen: ROS production from glycerol-3-phosphate dehydrogenase (GPDH); type: biochemical; parameters: inhibition: dose or concentration left out as unconfirmed; settings: for inhibition / GPDH: percent change in ROS from DMSO controls; for inhibition at 2.5 µM: Table 6, 25 mM glycerol phosphate, rotenone, antimycin A, malonate, myxothiazol, compounds 2.5 μM, scaled to IQ positive controls, read-out: % Reduction in ROS Production (GPDH)
T3 construct: The activity of GPDH in intact mitochondria (0.3 mg/mL) was measured; from tissue; host or cells: rat skeletal muscle mitochondria (Wistar, Harlan Laboratories)
T3 sequence (P35571 43-727): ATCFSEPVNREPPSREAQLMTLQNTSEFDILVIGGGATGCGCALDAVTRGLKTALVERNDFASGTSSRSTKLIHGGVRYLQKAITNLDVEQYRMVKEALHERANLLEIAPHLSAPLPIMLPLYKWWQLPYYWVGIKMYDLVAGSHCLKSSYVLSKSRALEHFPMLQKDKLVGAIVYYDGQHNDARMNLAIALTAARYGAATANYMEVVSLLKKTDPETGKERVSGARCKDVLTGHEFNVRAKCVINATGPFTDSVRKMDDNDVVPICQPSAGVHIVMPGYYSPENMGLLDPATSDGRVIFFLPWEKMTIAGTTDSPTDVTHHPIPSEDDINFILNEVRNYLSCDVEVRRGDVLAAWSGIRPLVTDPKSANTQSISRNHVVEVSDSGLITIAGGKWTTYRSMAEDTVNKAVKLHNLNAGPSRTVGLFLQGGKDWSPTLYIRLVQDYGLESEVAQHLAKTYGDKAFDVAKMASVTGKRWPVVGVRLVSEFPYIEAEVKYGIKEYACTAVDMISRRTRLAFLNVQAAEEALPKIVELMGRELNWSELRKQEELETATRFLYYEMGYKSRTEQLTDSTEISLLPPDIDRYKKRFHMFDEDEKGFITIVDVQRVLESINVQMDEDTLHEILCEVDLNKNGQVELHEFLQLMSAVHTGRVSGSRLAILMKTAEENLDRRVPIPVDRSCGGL

[5] = test system: mitochondrial membrane potential (ΔΨm); experiment: Membrane potential (ΔΨm) counterscreen with TMRM; settings: malate, nigericin
Procedure: Skeletal muscle mitochondria were isolated from 5-8 week old female Wistar rats (Harlan Laboratories). Minced muscle was homogenized in buffer containing bacterial protease Type VIII prior to differential centrifugation to separate mitochondria from other tissue components. Unless otherwise stated, freshly isolated muscle mitochondria were assayed in buffer containing 120 mM KCl, 5 mM HEPES, 1 mM EGTA, 0.3% (w/v) bovine serum albumin. Where indicated, CaCl2 was added to yield a final free concentration of 250 nM calcium at pH 7.0 at 37° C. Total and free calcium concentrations were calculated using the Extended MaxChelator program at http://maxchelator.stanford.edu.
Compounds were manually transferred from the Master Compound Plate to two black 96-well assay plates. A bulk solution was prepared containing the following components (final concentrations) and manually dispensed into the two ΔΨm assay plates: the potentiometric dye TMRM (5 μM), mitochondria (0.2 mg/mL), glutamate (5 mM), malate (5 mM), and nigericin (80 ng/mL).

[6] = molecular target: T4, flavin binding site of complex I (IF) (Rattus norvegicus, UniProt Q5XIH3); experiment: High-throughput screen: ROS production from flavin binding site of complex I (IF); type: biochemical
T4 construct: freshly isolated muscle mitochondria were assayed; from tissue; host or cells: rat skeletal muscle mitochondria (Wistar, Harlan Laboratories)
Procedure: Skeletal muscle mitochondria were isolated from 5-8 week old female Wistar rats (Harlan Laboratories). Minced muscle was homogenized in buffer containing bacterial protease Type VIII prior to differential centrifugation to separate mitochondria from other tissue components. Unless otherwise stated, freshly isolated muscle mitochondria were assayed in buffer containing 120 mM KCl, 5 mM HEPES, 1 mM EGTA, 0.3% (w/v) bovine serum albumin. Where indicated, CaCl2 was added to yield a final free concentration of 250 nM calcium at pH 7.0 at 37° C.
Master screening plates were prepared using a Biomek FX liquid handling workstation (Beckman) to transfer 1 μL of each compound into individual wells on 96-well storage plates (80 compounds per plate). […] Just prior to use, plates were brought to room temperature and diluted 300-fold with standard buffer (13.3X=33.3 μM). To monitor the performance of each assay throughout screening and to provide intra-plate normalization reference points, DMSO negative controls and known mitochondrial inhibitor positive controls were included on each Master compound plate.
Total amounts of superoxide and H2O2 production were determined fluorometrically as H2O2, without distinguishing between them, in the presence of exogenous superoxide dismutase (25 units/mL final), horseradish peroxidase (1 unit/mL final), and Amplex UltraRed (25 μM final) as described (Affourtit, C. et al. (2012) Measurement of proton leak and electron leak in isolated mitochondria. Methods Mol. Biol. 810: 165-82). Just prior to use, a bulk 3.3X solution was made in standard buffer and distributed into a 2 mL deep well 96-well transfer plate.
To assess the effects of a compound on ROS production from the flavin binding site of complex I (IF), Start Solution containing 5 mM glutamate, 5 mM malate and 4 μM rotenone was distributed into standard 96-well transfer plates. A Biomek FX workstation was programmed to dispense solutions into black 96-well assay plates. Solutions were dispensed to all assay plates in the following order: ROS Detection solution described in Example 3, Mitochondria solution described in Example 1 to a final concentration of 0.3 mg/ml, and Compound dilutions described in Example 2. Duplicate assay plates were made and each was initiated by the addition of 3.3X Start solution containing 5 mM glutamate, 5 mM malate and 4 μM rotenone. Plates were incubated in the dark at room temperature for 30-40 minutes before acquiring endpoint fluorescence using a Victor 3V plate reader (Perkin Elmer) equipped with 550/590 nm excitation/emission filters.
The fluorescence values in each well were scaled as the percent change from the intra-plate DMSO controls with the appropriate inhibitor positive controls defined as −100%. Following initial scaling, intra-plate normalized values were subjected to Tukey's two-way median polish to remove row and column dependent positional effects (Malo, N. et al. (2006) Statistical practice in high-throughput screening data analysis. Nat. Biotechnol. 24(2): 167-75).

[7] = Table 7, percent change in ROS from DMSO controls, read-out: IIIQO
[8] = Table 8, percent change in ROS from DMSO controls
[9] = Table 9, percent change in ROS from DMSO controls, read-out: IIIQo
[10] = Table 7, percent change in ROS from DMSO controls, read-out: IF
[11] = Table 9, percent change in ROS from DMSO controls
[12] = Table 7, percent change in ROS from DMSO controls
[13] = Table 8, percent change in ROS from DMSO controls, read-out: IIIQO
[14] = Table 3, 5 mM glutamate, 5 mM malate, 4 μM rotenone, compounds 2.5 μM, percent change from DMSO, positive control −100%, read-out: % Reduction in ROS production (IF)
[15] = Table 8, percent change in ROS from DMSO controls, read-out: IF
[16] = Table 4, 5 mM succinate, 4 μM rotenone, 2.5 μM antimycin A, compounds 2.5 μM, percent change from DMSO, read-out: % Reduction in ROS production (IIIQO)

T2 sequence (Q920L2 35-656): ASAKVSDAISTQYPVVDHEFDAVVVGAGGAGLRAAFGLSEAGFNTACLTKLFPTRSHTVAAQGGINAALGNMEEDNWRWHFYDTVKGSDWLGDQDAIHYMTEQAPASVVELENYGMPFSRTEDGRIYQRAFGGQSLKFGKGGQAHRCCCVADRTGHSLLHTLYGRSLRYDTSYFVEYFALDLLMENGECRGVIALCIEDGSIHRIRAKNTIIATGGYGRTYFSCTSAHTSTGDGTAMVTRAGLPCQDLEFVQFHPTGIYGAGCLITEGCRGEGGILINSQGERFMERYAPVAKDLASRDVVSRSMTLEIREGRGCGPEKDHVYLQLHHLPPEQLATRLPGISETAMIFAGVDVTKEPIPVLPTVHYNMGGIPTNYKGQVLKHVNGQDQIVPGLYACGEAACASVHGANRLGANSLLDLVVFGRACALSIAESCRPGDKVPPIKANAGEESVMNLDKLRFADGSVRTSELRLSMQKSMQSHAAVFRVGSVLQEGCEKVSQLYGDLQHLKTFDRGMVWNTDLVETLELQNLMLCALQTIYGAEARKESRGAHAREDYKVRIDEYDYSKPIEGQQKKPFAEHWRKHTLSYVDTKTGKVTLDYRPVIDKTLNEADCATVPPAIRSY
T2 sequence (P21913 31-282): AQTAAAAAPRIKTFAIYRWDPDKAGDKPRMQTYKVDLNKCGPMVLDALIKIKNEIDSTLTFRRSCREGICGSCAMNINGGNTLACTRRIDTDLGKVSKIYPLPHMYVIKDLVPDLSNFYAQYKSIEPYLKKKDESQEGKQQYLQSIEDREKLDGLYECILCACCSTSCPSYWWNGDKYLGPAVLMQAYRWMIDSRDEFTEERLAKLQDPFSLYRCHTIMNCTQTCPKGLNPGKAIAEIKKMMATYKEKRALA
T2 sequence (Q641Z9 30-169 limits assumed): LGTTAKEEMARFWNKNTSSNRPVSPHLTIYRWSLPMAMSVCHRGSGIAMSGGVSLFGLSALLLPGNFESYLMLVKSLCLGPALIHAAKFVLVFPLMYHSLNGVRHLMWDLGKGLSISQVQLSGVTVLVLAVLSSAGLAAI
T2 sequence (Q6PCT8 57-159): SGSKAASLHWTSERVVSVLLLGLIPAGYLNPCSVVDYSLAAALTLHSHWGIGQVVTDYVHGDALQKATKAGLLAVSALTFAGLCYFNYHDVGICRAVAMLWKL
T4 sequence (Q5XIH3 21-464 limits assumed, one chain of several): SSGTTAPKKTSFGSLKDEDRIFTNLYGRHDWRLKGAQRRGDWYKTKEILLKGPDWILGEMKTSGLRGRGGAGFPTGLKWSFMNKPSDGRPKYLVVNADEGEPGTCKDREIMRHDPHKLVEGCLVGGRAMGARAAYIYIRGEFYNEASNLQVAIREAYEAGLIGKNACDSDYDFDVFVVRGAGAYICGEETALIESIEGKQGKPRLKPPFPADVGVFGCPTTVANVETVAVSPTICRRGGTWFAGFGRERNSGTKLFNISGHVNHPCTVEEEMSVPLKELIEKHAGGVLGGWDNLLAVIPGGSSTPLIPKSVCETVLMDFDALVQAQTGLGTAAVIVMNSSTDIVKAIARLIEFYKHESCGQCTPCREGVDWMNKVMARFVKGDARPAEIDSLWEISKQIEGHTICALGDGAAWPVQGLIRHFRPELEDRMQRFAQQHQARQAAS

Structure (SMILES)	IQ ([1]; Table 7)	IQ ([1]; Table 8)	IQ ([1]; Table 9)	IIIQO [2, 8]	SDH ([3]; Table 8)	SDH ([3]; Table 9)	GPDH ([4]; Table 8)	GPDH ([4]; Table 9)	ΔΨm ([5]; Table 8, glutamate)	ΔΨm ([5]; Table 9, glutamate)	IF [6, 8]	IF [6, 11]	% Reduction in ROS Production (SDH) [3] [%]	inhibition at 2.5 µM [2, 13] [%]	inhibition at 2.5 µM ([3]; Table 8) [%]	inhibition ([4]; Table 8) [%]	inhibition at 2.5 µM [6, 14] [%]	inhibition at 2.5 µM [6, 15] [%]	inhibition at 2.5 µM [2, 16] [%]	further results
Cl.OC12CCCCC1C(c1cccc(Cl)c1)NCC2 (stereo not shown) [Compound 51]	−2.8	−2.8	−2.8	−9.8	−1.8	−1.8	−12.0	−12.0	0.9	0.9	5.5	5.5								inhibition at 2.5 µM [2, 7]: 9.8%; inhibition at 2.5 µM [2, 9]: 9.8%; inhibition at 2.5 µM ([3]; Table 7): 1.8%; inhibition ([4]; Table 7): 12%; inhibition at 2.5 µM [6, 10]: -5.5%
Oc1nnc(Cc2ccncc2)c2ccccc12 [Compound 72]	0.4	0.4	0.4	5.4	−27.4	−27.4	1.7	1.7	1.0	1.0	2.6	2.6	−27.4							inhibition at 2.5 µM [2, 7]: -5.4%; inhibition at 2.5 µM [2, 9]: -5.4%; inhibition at 2.5 µM ([3]; Table 7): 27.4%; inhibition ([4]; Table 7): -1.7%; inhibition at 2.5 µM [6, 10]: -2.6%
O=C(Nc1ccccc1[N+](=O)[O-])c1cccc(S(=O)(=O)Nc2ccccc2)c1 [Compound 73]	−4.6	−4.6	−4.6	−1.3	−26.9	−26.9	−2.4	−2.4	−0.2	−0.2	−0.7	−0.7	−26.9							IIIQO [2, 12]: −1.3; IIIQO [2, 11]: −1.3; SDH ([3]; Table 7): −26.9; GPDH ([4]; Table 7): −2.4; IF [6, 12]: −0.7
COc1ccc(C2C(C#N)=C(N)Oc3c2c(=O)oc2ccccc32)cc1O (stereo not shown) [Compound 74]	−0.7	−0.7	−0.7	−7.6	−20.9	−20.9	−3.5	−3.5	0.8	0.8	0.4	0.4	−20.9							inhibition at 2.5 µM [2, 7]: 7.6%; inhibition at 2.5 µM [2, 9]: 7.6%; inhibition at 2.5 µM ([3]; Table 7): 20.9%; inhibition ([4]; Table 7): 3.5%; inhibition at 2.5 µM [6, 10]: -0.4%
COc1ccc(NC(=S)NC(=O)c2ccco2)cc1 [Compound 75]		−50							−2				−22	-3	22	16	83	83		% Reduction in ROS production (IQ) [1]: −50%; inhibition at 2.5 µM [4]: 16%
O=C(Nc1nn[nH]n1)C1CCCCC1 [Compound 76]		−24							0					0	-3	0	34	34		% Reduction in ROS production (IQ) [1]: −24%
c1ccc(C2CCC(Nc3ccc4c(c3)OCO4)CC2)cc1 (stereo not shown) [Compound 77]		−18							1					15	0	-1		6	15	% Reduction in ROS production (IQ) [1]: −18%
Clc1ccc(C(NC2CCN(Cc3ccccc3)CC2)c2ccccc2)cc1 (stereo not shown) [Compound 78]		2							−1					30	5	6	37	37	30	
CCC1CCCCN1C/C=C/c1ccc(N(C)C)cc1 (stereo not shown) [Compound 80]		0							0					12	-4	11	23	23	12	inhibition at 2.5 µM [4]: 11%
CN(C)c1ccc(C(=C2CN3CCC2CC3)c2ccc(N(C)C)cc2)cc1 [Compound 81]		2							−1					0	1	13		49		
Cc1cc(OCC(O)CN(Cc2ccccc2)C(C)(C)C)ccc1[N+](=O)[O-] (stereo not shown) [Compound 82]		−2		−10	−35		0		0		−34		−35							% Reduction in ROS production (IF) ([6]; Table 3, 5 mM glutamate, 5 mM malate, 4 μM rotenone, compounds 2.5 μM, percent change from DMSO, positive control −100%): −34%
Clc1ccc(N2CCN(CC(c3ccccc3)c3ccccc3)CC2)cc1 [Compound 83]		2							1				−14	29	14	3		1	29	
